Entries after “also recorded” stand apart in the source; their conditions may differ.
Tests used:
[1] = cited from earlier work
[2] = system: metals in the retina, i.e., copper and zinc; test: Autometallography (AMG) of metals in the retina after optic nerve crush (ONC); type: in vivo, mice; settings: day 1 post ONC; intraocular injection immediately after ONC; TPEN 100 μM, PSP-2 50 μM, PSP-2+Cu 50 μM
Protocol: Metals in the retina, i.e., copper and zinc, were visualized using autometallography. […] To determine whether copper chelators had any effect on this increase, the selective copper chelator PSP-2 was used. Mice were administered 3 μL of DMSO 1% in PBS (control), 100 μM TPEN (10 mM TPEN stock in DMSO diluted in PBS (DMSO 1%)), 50 μM PSP-2 (5 mM PSP-2 stock in DMSO diluted in PBS (DMSO 1%)), or 50 μM PSP-2+Cu (10 mM PSP-2+Cu in de-O2 water diluted in PBS (DMSO 1%) immediately after unilateral optic nerve crush (ONC). In these studies, the normal, intact retina was used as a reference.
(§1) Experiments were performed in 8 to 9-week-old 129S1/SvImJ male mice (Jackson Laboratory, Bar Harbor, Me.). Mice were anesthetized prior to ONC surgery with ketamine and xylazine. The ONC surgery and euthanization of mice were performed as previously described in U.S. Publication No. 2014/079741, the contents of which are hereby incorporated by reference in their entirety. Briefly, a conjunctival incision was made over the dorsal aspect of one eye, which was then gently rotated downward in the orbit. The orbital muscles were slightly separated to expose the optic nerve at its exit from the globe, which was then crushed for 5 seconds with jewelers' forceps (Dumont number 5) near the back of the eye (within 0.5 mm). […]

[3] = system: astrocyte-rich primary cortical neurons; test: DTDP (dithiodipyridine) toxicity in astrocyte-rich primary cortical neurons; type: cell-based; settings: PSP-2 3 μM (FIG. 8)
Protocol: FIG. 8 is a bar plot showing that DTDP (dithiodipyridine) toxicity in astrocyte-rich primary cortical neurons was reversed with PSP-2 (3 μM). DTDP is an agent oxidizing metallothioneins. Oxidation of metallothioneins leads to liberation of metals (zinc and copper) and cell death.

retinal ganglion cells = test: Retinal ganglion cell survival after optic nerve crush (βIII-tubulin positive cells); type: in vivo, mice; settings: two weeks post ONC
Protocol: as §1, with “mm). ONC was performed unilaterally for all autometallography experiments and bilaterally for all regeneration experiments.” for “mm).”
(§2) Axon growth was determined by counting GAP-43-positive axons extending 0.5 and 1 mm from the crush site. The cross-sectional width of the nerve was measured at the 0.5 and 1 mm points. The number of axons per millimeter of nerve width was calculated and then averaged for the number of sections analyzed. The estimated number of axons per nerve was then calculated. Retinal ganglion cell survival was measured as the number of βIII-tubulin positive cells per mm^2.

[4] = system: GAP-43-positive axons in the optic nerve; test: Axon regeneration after optic nerve crush (GAP-43-positive axons); type: in vivo, mice
Protocol: To determine if copper chelation promotes axon regeneration after nerve injury, mice were administered treatments as described in Example 1 after bilateral ONC. […] An antibody against GAP-43 was used to detect growing axons (FIG. 4A-4D).
as §1, with “mm). ONC was performed unilaterally for all autometallography experiments and bilaterally for all regeneration experiments. Treatments were administered unilaterally for all autometallography experiments and bilaterally for all regeneration experiments. Post-ONC treatments were administered by intraocular injection immediately after ONC surgery. Mice were sacrificed with an overdose of anesthesia. Tissue samples were snap-frozen for all autometallography experiments. Mice were perfused with saline followed by 4% paraformaldehyde (PFA) and the tissue samples were post-fixed in PFA for regeneration experiments.” for “mm).”
as §2

HT22 cell culture = test: Glutamate toxicity in HT22 cell culture; type: cell-based; settings: PSP-2 50 μM (FIG. 9)
Source text: Glutamate toxicity is a model of ferroptotic cell death. Glutamate toxicity and ferroptosis are likely involved in retinal ganglion cell (RGC) death post-optic nerve crush (ONC).

Structure (SMILES): CP(C)(=S)CP(CP(C)(C)=S)c1ccccc1P(CP(C)(C)=S)CP(C)(C)=S [PhenPS]
- dissociation constant, Cu(I) [1]: about 0.6 zM

Structure (SMILES): c1ccc(CN(CCN(Cc2ccccn2)Cc2ccccn2)Cc2ccccn2)nc1 [TPEN, N, N, N′, N′-tetrakis(2-pyridylmethyl) ethylenediamine, reference compound]
- autometallography (AMG) signal in the retina [2]: reduced the autometallography signal

Structure (SMILES): CP(C)(=S)CP(CCP(CP(C)(C)=S)CP(C)(C)=S)CP(C)(C)=S [PSP-2]
- DTDP-induced cell death [3]: reversed
- survival of retinal ganglion cells (retinal ganglion cells): did not significantly affect survival of retinal ganglion cells; also recorded: did not improve retinal ganglion cell (RGC) survival
- axon regeneration, dose dependence ([4]; 2 weeks post ONC, FIG. 7A): improved axon regeneration in a dose-dependent manner
- axon regeneration at 0.5 mm distance from the site of ONC ([4]; two weeks post ONC, 0.5 mm, PSP-2 50 μM intraocular): improved axon regeneration
- axon regeneration at 1.0 mm distance from the site of ONC ([4]; two weeks post ONC, 1.0 mm, PSP-2 50 μM intraocular): improved axon regeneration
- glutamate-induced cell death (HT22 cell culture): partially alleviated
- autometallography (AMG) signal in the retina [2]: reduced the autometallography signal; also recorded: reduced metal autometallography (AMG) signal

Structure (SMILES): CP(C)(=S)CP(CP(C)(C)=S)c1cccc2cccc(P(CP(C)(C)=S)CP(C)(C)=S)c12 [naphPS]
- dissociation constant, Cu(I) [1]: 0.8 zM

From patent US11712444B2, “Compositions and methods of treating neuronal injury” (CHILDREN'S MEDICAL CENTER CORPORATION, priority 2019, dated 2023)
